# Results reported in PubChem BioAssay (NCI).
#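 Dose response: 5 concentrations. Exposure: 48 h. Format: 96-well plates. Endpoint: linear interpolation; highest concentration if not reached. Here, GI50 denotes the concentration required for 50% inhibition of growth. TGI: total growth inhibition.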
# Legend:
# Test in all cases: NCI tumour cell line growth inhibition, 48 h
# [1] = system: TK-10 renal
# [2] = system: CCRF-CEM leukemia
# [3] = system: UO-31 renal
# [4] = system: ACHN renal
# [5] = system: MCF7 breast
# [6] = system: SF-268 CNS
# [7] = system: SF-539 CNS
# [8] = system: A498 renal
# [9] = system: UACC-257 melanoma
# [10] = system: IGROV1 ovarian
# [11] = system: MDA-MB-231 breast
# [12] = system: SK-MEL-5 melanoma
# [13] = system: CAKI-1 renal
# [14] = system: HOP-92 NSCLC
# [15] = system: NCI-H522 lung
# [16] = system: SK-MEL-2 melanoma
# [17] = system: RPMI-8226 leukemia
# [18] = system: A549 NSCLC
# [19] = system: EKVX NSCLC
# [20] = system: MOLT-4 leukemia
# [21] = system: HCT-116 colon
# [22] = system: OVCAR-8 ovarian
# [23] = system: LOX IMVI melanoma
# [24] = system: MDA-MB-435
# [25] = system: HCT-15 colon
# [26] = system: BT-549 breast
# [27] = system: SNB-19 CNS
# [28] = system: OVCAR-5 ovarian
# [29] = system: SW-620 colon
# [30] = system: HOP-62 NSCLC
# [31] = system: OVCAR-4 ovarian
# [32] = system: NCI-H23 lung
# [33] = system: SR leukemia
# [34] = system: NCI-H460 lung
# [35] = system: M14 melanoma
# [36] = system: RXF 393 renal
# [37] = system: NCI/ADR-RES ovarian
# [38] = system: PC-3 prostate
# [39] = system: UACC-62 melanoma
# [40] = system: MALME-3M melanoma
# [41] = system: SF-295 CNS
# [42] = system: SNB-75 CNS
# [43] = system: U251 CNS
# [44] = system: COLO 205 colon
# [45] = system: NCI-H226 lung
# [46] = system: OVCAR-3 ovarian
# [47] = system: HT29 colon
# [48] = system: SK-OV-3 ovarian
# [49] = system: DU-145 prostate
# [50] = system: HL-60(TB) leukemia
# [51] = system: KM12 colon
# [52] = system: SK-MEL-28 melanoma
# [53] = system: K-562 leukemia
# [54] = system: 786-0 renal
# [55] = system: HS 578T breast
# [56] = system: T-47D breast
# [57] = system: SN12C renal
# [58] = system: HCC-2998 colon
compound,measurement,setting,value
CN(C)c1ccc2c(c1)OC(N)=C(C#N)C2c1ccc2c(c1)CCCN2C (configuration not stated),GI50,[1],10.2 µM
same,TGI,[1],91.7 µM
same,GI50,[2],3.01 µM
same,TGI,[2],49.2 µM
same,GI50,[3],5.15 µM
same,TGI,[3],78.5 µM
same,GI50,[4],4.63 µM
same,TGI,[4],64.6 µM
same,GI50,[5],0.444 µM
same,TGI,[5],33.4 µM
same,GI50,[6],6.85 µM
same,TGI,[6],> 100 µM
same,GI50,[7],2.28 µM
same,TGI,[7],8.16 µM
same,GI50,[8],0.228 µM
same,TGI,[8],4.07 µM
same,GI50,[9],10.5 µM
same,TGI,[9],45.1 µM
same,GI50,[10],4.03 µM
same,TGI,[10],> 100 µM
same,GI50,[11],3.52 µM
same,TGI,[11],> 100 µM
same,GI50,[12],0.733 µM
same,TGI,[12],12.8 µM
same,GI50,[13],3.33 µM
same,TGI,[13],> 100 µM
same,GI50,[14],2.82 µM
same,TGI,[14],57 µM
same,GI50,[15],0.274 µM
same,TGI,[15],1.47 µM
same,GI50,[16],1.68 µM
same,TGI,[16],28.6 µM
same,GI50,[17],4.07 µM
same,TGI,[17],31 µM
same,GI50,[18],2.03 µM
same,TGI,[18],> 100 µM
same,GI50,[19],3.79 µM
same,TGI,[19],> 100 µM
same,GI50,[20],3.38 µM
same,TGI,[20],24.5 µM
same,GI50,[21],1.6 µM
same,TGI,[21],14.6 µM
same,GI50,[22],3.2 µM
same,TGI,[22],27.5 µM
same,GI50,[23],1.97 µM
same,TGI,[23],19.2 µM
same,GI50,[24],0.305 µM
same,TGI,[24],1.28 µM
same,GI50,[25],0.789 µM
same,TGI,[25],> 100 µM
same,GI50,[26],2.03 µM
same,TGI,[26],13.2 µM
same,GI50,[27],4.26 µM
same,TGI,[27],> 100 µM
same,GI50,[28],59 µM
same,TGI,[28],> 100 µM
same,GI50,[29],0.938 µM
same,TGI,[29],> 100 µM
same,GI50,[30],1.83 µM
same,TGI,[30],54.1 µM
same,GI50,[31],5.01 µM
same,TGI,[31],> 100 µM
same,GI50,[32],2.83 µM
same,TGI,[32],92.1 µM
same,GI50,[33],0.648 µM
same,TGI,[33],16.6 µM
same,GI50,[34],1.92 µM
same,TGI,[34],24.9 µM
same,GI50,[35],1.29 µM
same,TGI,[35],18.5 µM
same,GI50,[36],1.43 µM
same,TGI,[36],5.58 µM
same,GI50,[37],1.12 µM
same,TGI,[37],9.08 µM
same,GI50,[38],2.64 µM
same,TGI,[38],> 100 µM
same,GI50,[39],1.55 µM
same,TGI,[39],33.9 µM
same,GI50,[40],16.3 µM
same,TGI,[40],58.9 µM
same,GI50,[41],0.708 µM
same,TGI,[41],6.51 µM
same,GI50,[42],2.27 µM
same,TGI,[42],> 100 µM
same,GI50,[43],2.6 µM
same,TGI,[43],21.9 µM
same,GI50,[44],2.44 µM
same,TGI,[44],6.51 µM
same,GI50,[45],5.44 µM
same,TGI,[45],71 µM
same,GI50,[46],0.691 µM
same,TGI,[46],10.3 µM
same,GI50,[47],2.62 µM
same,TGI,[47],8.23 µM
same,GI50,[48],2.52 µM
same,TGI,[48],25.8 µM
same,GI50,[49],3.51 µM
same,TGI,[49],> 100 µM
same,GI50,[50],2.81 µM
same,TGI,[50],8.7 µM
same,GI50,[51],0.783 µM
same,TGI,[51],> 100 µM
same,GI50,[52],11 µM
same,TGI,[52],86.3 µM
same,GI50,[53],0.493 µM
same,TGI,[53],> 100 µM
same,GI50,[54],4.33 µM
same,TGI,[54],> 100 µM
same,GI50,[55],2.13 µM
same,TGI,[55],> 100 µM
same,GI50,[56],11.7 µM
same,TGI,[56],51.6 µM
CCN(CC)C(=O)CCCCCn1c2ccccc2c2c3c(c4c5ccccc5[nH]c4c21)C(=O)N(O)C3=O,GI50,[1],3.64 µM
same,TGI,[1],64 µM
same,GI50,[2],3.07 µM
same,TGI,[2],21.9 µM
same,GI50,[3],1.72 µM
same,TGI,[3],4.22 µM
same,GI50,[57],4.03 µM
same,TGI,[57],> 100 µM
same,GI50,[5],2.94 µM
same,TGI,[5],> 100 µM
same,GI50,[6],3.97 µM
same,TGI,[6],> 100 µM
same,GI50,[7],1.92 µM
same,TGI,[7],4.27 µM
same,GI50,[8],2.86 µM
same,TGI,[8],20.3 µM
same,GI50,[9],10.7 µM
same,TGI,[9],55.1 µM
same,GI50,[10],2.41 µM
same,TGI,[10],6.87 µM
same,GI50,[11],5.52 µM
same,TGI,[11],82.5 µM
same,GI50,[12],2 µM
same,TGI,[12],5.02 µM
same,GI50,[14],2.73 µM
same,TGI,[14],7.68 µM
same,GI50,[15],1.41 µM
same,TGI,[15],3.13 µM
same,GI50,[16],3.38 µM
same,TGI,[16],12.1 µM
same,GI50,[17],3.06 µM
same,TGI,[17],11.3 µM
same,GI50,[18],21.8 µM
same,TGI,[18],98.4 µM
same,GI50,[19],10.9 µM
same,TGI,[19],58.4 µM
same,GI50,[20],2.05 µM
same,TGI,[20],6.13 µM
same,GI50,[21],3.75 µM
same,TGI,[21],28.1 µM
same,GI50,[22],4.1 µM
same,TGI,[22],28.3 µM
same,GI50,[23],1.13 µM
same,TGI,[23],2.88 µM
same,GI50,[24],4.04 µM
same,TGI,[24],40 µM
same,GI50,[25],4.07 µM
same,TGI,[25],> 100 µM
same,GI50,[26],4.66 µM
same,TGI,[26],48.5 µM
same,GI50,[27],4.7 µM
same,TGI,[27],> 100 µM
same,GI50,[28],31.1 µM
same,TGI,[28],> 100 µM
same,GI50,[29],4.29 µM
same,TGI,[29],> 100 µM
same,GI50,[30],11.6 µM
same,TGI,[30],47.8 µM
same,GI50,[31],5.06 µM
same,TGI,[31],> 100 µM
same,GI50,[32],3.33 µM
same,TGI,[32],47.3 µM
same,GI50,[33],1.56 µM
same,TGI,[33],13.6 µM
same,GI50,[34],3.62 µM
same,TGI,[34],15.4 µM
same,GI50,[35],4.49 µM
same,TGI,[35],39.3 µM
same,GI50,[36],4.01 µM
same,TGI,[36],> 100 µM
same,GI50,[58],4.72 µM
same,TGI,[58],27.1 µM
same,GI50,[37],3.4 µM
same,TGI,[37],> 100 µM
same,GI50,[38],3.19 µM
same,TGI,[38],52.9 µM
same,GI50,[39],4.1 µM
same,TGI,[39],20.1 µM
same,GI50,[40],8.2 µM
same,TGI,[40],65.7 µM
same,GI50,[41],6.07 µM
same,TGI,[41],55.7 µM
same,GI50,[42],7.71 µM
same,TGI,[42],> 100 µM
same,GI50,[43],1.96 µM
same,TGI,[43],3.78 µM
same,GI50,[44],1.97 µM
same,TGI,[44],4.23 µM
same,GI50,[45],14.1 µM
same,TGI,[45],54.4 µM
same,GI50,[47],2.22 µM
same,TGI,[47],4.44 µM
same,GI50,[48],22.2 µM
same,TGI,[48],92.1 µM
same,GI50,[49],6.5 µM
same,TGI,[49],> 100 µM
same,GI50,[50],2.8 µM
same,TGI,[50],7.63 µM
same,GI50,[51],3.31 µM
same,TGI,[51],14.7 µM
same,GI50,[52],5.38 µM
same,TGI,[52],> 100 µM
same,GI50,[53],4.18 µM
same,TGI,[53],> 100 µM
same,GI50,[54],2.12 µM
same,TGI,[54],5.04 µM
same,GI50,[55],5.05 µM
same,TGI,[55],> 100 µM
same,GI50,[56],4.12 µM
same,TGI,[56],52.1 µM
